Measurements as given in ChEMBL document CHEMBL1142856, “Design, synthesis, and structure-activity relationship of podocarpic acid amides as liver X receptor agonists for potential treatment of atherosclerosis” (Bioorg Med Chem Lett, 2005).

Key:
[1] = molecular target: T1, Oxysterols receptor LXR-alpha (Homo sapiens) (UniProt Q13133)
T1 sequence (whole entry): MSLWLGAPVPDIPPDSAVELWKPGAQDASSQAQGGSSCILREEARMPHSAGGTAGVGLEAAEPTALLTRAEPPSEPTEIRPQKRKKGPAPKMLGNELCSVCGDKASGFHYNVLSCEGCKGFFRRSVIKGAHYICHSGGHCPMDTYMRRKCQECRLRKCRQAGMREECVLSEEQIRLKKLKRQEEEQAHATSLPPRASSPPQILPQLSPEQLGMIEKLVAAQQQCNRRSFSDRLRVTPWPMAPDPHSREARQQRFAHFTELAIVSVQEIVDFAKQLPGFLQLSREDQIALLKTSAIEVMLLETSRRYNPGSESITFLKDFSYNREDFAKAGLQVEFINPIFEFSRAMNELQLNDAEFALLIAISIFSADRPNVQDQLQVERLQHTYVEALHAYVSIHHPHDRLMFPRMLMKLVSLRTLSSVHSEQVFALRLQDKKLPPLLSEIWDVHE
Description: TA max fold induction against LXR alpha

[2] = molecular target: T2, Oxysterols receptor LXR-beta (Homo sapiens) (UniProt P55055)
T2 sequence (whole entry): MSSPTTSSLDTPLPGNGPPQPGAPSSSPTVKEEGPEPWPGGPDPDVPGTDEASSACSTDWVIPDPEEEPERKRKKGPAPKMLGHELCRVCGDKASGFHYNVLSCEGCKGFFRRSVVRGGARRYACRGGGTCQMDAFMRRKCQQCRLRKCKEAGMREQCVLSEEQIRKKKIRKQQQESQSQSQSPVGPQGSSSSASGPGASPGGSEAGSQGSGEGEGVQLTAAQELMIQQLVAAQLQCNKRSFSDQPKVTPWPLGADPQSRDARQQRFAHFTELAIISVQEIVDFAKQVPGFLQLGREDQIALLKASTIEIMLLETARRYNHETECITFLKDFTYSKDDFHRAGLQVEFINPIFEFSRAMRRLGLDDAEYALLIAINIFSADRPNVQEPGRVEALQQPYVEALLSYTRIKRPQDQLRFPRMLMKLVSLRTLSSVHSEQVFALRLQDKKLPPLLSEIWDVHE
Description: TA max fold induction against LXR beta

[3] = molecular target: T3, Oxysterols receptor LXR-beta (Homo sapiens, UniProt P55055); experiment: Effective concentration in recombinant human LXRbeta ligand binding domain in homogeneous time-resolved fluorescence assay
T3 sequence (P55055 whole entry): T2 sequence (whole entry)

[4] = molecular target: T4, Oxysterols receptor LXR-alpha (Homo sapiens, UniProt Q13133); experiment: Effective concentration in recombinant human LXRalpha ligand binding domain in homogeneous time-resolved fluorescence assay
T4 sequence (Q13133 whole entry): T1 sequence (whole entry)

[5] = molecular target: T4, Oxysterols receptor LXR-alpha; experiment: Inhibitory concentration in LXRSPA alpha binding assay
[6] = molecular target: T3, Oxysterols receptor LXR-beta; experiment: Inhibitory concentration in LXRSPA beta binding assay

Induction [1]	Induction [2]	Compound	EC50 [3] [µM]	EC50 [4] [µM]	IC50 [5] [µM]	IC50 [6] [µM]
60	54	CC(=O)Oc1ccc2c(c1)[C@@]1(C)CCCC(C)(C(=O)OC(=O)[C@@]3(C)CCC[C@]4(C)c5cc(OC(C)=O)ccc5CC[C@@H]34)[C@@H]1CC2 (stereo partly specified)	–	–	–	–
–	–	C=CCOC(=O)[C@@]1(C)CCC[C@]2(C)c3cc(O)ccc3CC[C@@H]12	> 50	> 50	> 15	> 15
